Values after ≈ are worked out from the molar mass of the structure shown. Values joined by “and” are separate entries in the source; they are usually repeats but may differ in a detail not shown here. Identical values can stand only once. Like-named read-outs stand apart in the source and are kept apart here.
What was measured:
[1] = system: Mycobacterium smegmatis mc2155 ATCC700084T; assay: MIC, antibacterial specificity; type: cell-based
E. coli AG100 = assay: Time-kill kinetics (CFU); type: cell-based, Escherichia coli
Experimental: A drug-free control was included in the assay to monitor the normal growth of the strain. Cultures were sampled for CFU determination after 0, 1, 2, 3, 4, 5, 6, and 24 h of incubation at 37 °C with shaking. For CFU determination, 10-fold serial dilutions were made in a saline solution and 20 µl of each solution was placed onto the surface of a Mueller–Hinton agar plate. The colonies were counted after the incubation of the plates at 37 °C for 24 h. The limit of detection of the assay was 17 CFU/ml. Each assay was repeated at least twice.

[2] = system: Klebsiella pneumoniae FF4891; assay: MIC, antibacterial specificity; type: cell-based

## CCCOc1ccc(-c2cc(OCCN3CCNCC3)c3ccccc3n2)cc1 [PQQ4R, 4-(2-(piperazin-1-yl)ethoxy)-2-(4-propoxyphenyl) quinolone]
[1]
  MIC: 32 µg/mL (≈ 81.7 µM)
E. coli AG100
  time of exposure to reduce viability to zero: 3 h and 4 h
E. coli AG100; AG100
  MBC (minimal bactericidal concentration): 640 µM (≈ 251 µg/mL)
E. coli AG100; AG100, 80 μM (1/8 MIC)
  viability: 100%
E. coli AG100; AG100, 160 μM (1/4 MIC)
  viability: 98%
E. coli AG100; AG100, 320 μM (1/2 MIC)
  viability: 92%
E. coli AG100; AG100, 640 μM (MIC)
  viability: 0%
E. coli AG100; AG100, 1/2 MIC, T1 (1 h)
  CFU count Log10: 3.836
  CFU count Mean: 6.8E+03
E. coli AG100; AG100, 1/2 MIC, T2 (2 h)
  CFU count Log10: 3.5272
  CFU count Mean: 3.4E+03
E. coli AG100; AG100, 1/2 MIC, T3 (3 h)
  CFU count Log10: 3.503
  CFU count Mean: 3.2E+03
E. coli AG100; AG100, 1/2 MIC, T4 (4 h)
  CFU count Log10: 3.423
  CFU count Mean: 2.6E+03
E. coli AG100; AG100, 1/2 MIC, T5 (5 h)
  CFU count Log10: 2.79
  CFU count Mean: 6.2E+02
E. coli AG100; AG100, 1/2 MIC, T6 (6 h)
  CFU count Log10: 2.222
  CFU count Mean: 1.7E+02
E. coli AG100; AG100, 1/2 MIC, T24 (24 h)
  CFU count Mean: 2.0E+13
E. coli AG100; AG100, 2xMIC, T1 (1 h)
  CFU count - Strain dilution: 0
  CFU count - absolute values: 0
  CFU count Log10: 0
  CFU count Mean: 0.0E+00
E. coli AG100; AG100, 2xMIC, T2 (2 h)
  CFU count - Strain dilution: 0
  CFU count - absolute values: 0
  CFU count Log10: 0
  CFU count Mean: 0.0E+00
E. coli AG100; AG100, 2xMIC, T3 (3 h)
  CFU count - Strain dilution: 0
  CFU count - absolute values: 0
  CFU count Log10: 0
  CFU count Mean: 0.0E+00
E. coli AG100; AG100, 2xMIC, T4 (4 h)
  CFU count - Strain dilution: 0
  CFU count - absolute values: 0
  CFU count Log10: 0
  CFU count Mean: 0.0E+00
E. coli AG100; AG100, 2xMIC, T5 (5 h)
  CFU count - Strain dilution: 0
  CFU count - absolute values: 0
  CFU count Log10: 0
  CFU count Mean: 0.0E+00
E. coli AG100; AG100, 2xMIC, T6 (6 h)
  CFU count - Strain dilution: 0
  CFU count - absolute values: 0
  CFU count Log10: 0
  CFU count Mean: 0.0E+00
E. coli AG100; AG100, 2xMIC, T24 (24 h)
  CFU count - Strain dilution: 0
  CFU count - absolute values: 0
  CFU count Log10: 0
  CFU count Mean: 0.0E+00
E. coli AG100; AG100, 2× MIC
  time of exposure to reduce viability to zero: 1 h
E. coli AG100; AG100, 4xMIC, T1 (1 h)
  CFU count - Strain dilution: 0
  CFU count - absolute values: 0
  CFU count Log10: 0
  CFU count Mean: 0.0E+00
E. coli AG100; AG100, 4xMIC, T2 (2 h)
  CFU count - Strain dilution: 0
  CFU count - absolute values: 0
  CFU count Log10: 0
  CFU count Mean: 0.0E+00
E. coli AG100; AG100, 4xMIC, T3 (3 h)
  CFU count - Strain dilution: 0
  CFU count - absolute values: 0
  CFU count Log10: 0
  CFU count Mean: 0.0E+00
E. coli AG100; AG100, 4xMIC, T4 (4 h)
  CFU count - Strain dilution: 0
  CFU count - absolute values: 0
  CFU count Log10: 0
  CFU count Mean: 0.0E+00
E. coli AG100; AG100, 4xMIC, T5 (5 h)
  CFU count - Strain dilution: 0
  CFU count - absolute values: 0
  CFU count Log10: 0
  CFU count Mean: 0.0E+00
E. coli AG100; AG100, 4xMIC, T6 (6 h)
  CFU count - Strain dilution: 0
  CFU count - absolute values: 0
  CFU count Log10: 0
  CFU count Mean: 0.0E+00
E. coli AG100; AG100, 4xMIC, T24 (24 h)
  CFU count - Strain dilution: 0
  CFU count - absolute values: 0
  CFU count Log10: 0
  CFU count Mean: 0.0E+00
E. coli AG100; AG100, 8xMIC, T1 (1 h)
  CFU count - Strain dilution: 0
  CFU count - absolute values: 0
  CFU count Log10: 0
  CFU count Mean: 0.0E+00
E. coli AG100; AG100, 8xMIC, T2 (2 h)
  CFU count - Strain dilution: 0
  CFU count - absolute values: 0
  CFU count Log10: 0
  CFU count Mean: 0.0E+00
E. coli AG100; AG100, 8xMIC, T3 (3 h)
  CFU count - Strain dilution: 0
  CFU count - absolute values: 0
  CFU count Log10: 0
  CFU count Mean: 0.0E+00
E. coli AG100; AG100, 8xMIC, T4 (4 h)
  CFU count - Strain dilution: 0
  CFU count - absolute values: 0
  CFU count Log10: 0
  CFU count Mean: 0.0E+00
E. coli AG100; AG100, 8xMIC, T5 (5 h)
  CFU count - Strain dilution: 0
  CFU count - absolute values: 0
  CFU count Log10: 0
  CFU count Mean: 0.0E+00
E. coli AG100; AG100, 8xMIC, T6 (6 h)
  CFU count - Strain dilution: 0
  CFU count - absolute values: 0
  CFU count Log10: 0
  CFU count Mean: 0.0E+00
E. coli AG100; AG100, 8xMIC, T24 (24 h)
  CFU count - Strain dilution: 0
  CFU count - absolute values: 0
  CFU count Log10: 0
  CFU count Mean: 0.0E+00
E. coli AG100; AG100, MIC, T1 (1 h)
  CFU count Log10: 3.007
  CFU count Mean: 1.0E+03
E. coli AG100; AG100, MIC, T2 (2 h)
  CFU count Log10: 2.336
  CFU count Mean: 2.2E+02
E. coli AG100; AG100, MIC, T3 (3 h)
  CFU count Log10: 1.222
  CFU count Mean: 1.7E+01
E. coli AG100; AG100, MIC, T4 (4 h)
  CFU count - Strain dilution: 0
  CFU count - absolute values: 0
  CFU count Log10: 0
  CFU count Mean: 0.0E+00
E. coli AG100; AG100, MIC, T5 (5 h)
  CFU count - Strain dilution: 0
  CFU count - absolute values: 0
  CFU count Log10: 0
  CFU count Mean: 0.0E+00
E. coli AG100; AG100, MIC, T6 (6 h)
  CFU count - Strain dilution: 0
  CFU count - absolute values: 0
  CFU count Log10: 0
  CFU count Mean: 0.0E+00
E. coli AG100; AG100, MIC, T24 (24 h)
  CFU count - Strain dilution: 0
  CFU count - absolute values: 0
  CFU count Log10: 0
  CFU count Mean: 0.0E+00
E. coli AG100; AG100, half MIC
  reduction in bacterial viability: approx. 1 log
[2]
  MIC: >256 µg/mL

— publication PMC5433425 (PeerJ, 2017)
